Experimental data: US20210115494A1, “Improved method for measurement of microbial biomass” (Mycometer A/S, priority 2018, published 2021)

Tests used:
[1] = system: NAHA activity from all sources; experiment: NAHA activity assay, all sources; format: biochemical; conditions: 500 μM
Description: (§1) In order to determine NAHA activity in different samples, the technology in WO 98/033934 was employed: A sample containing a dried or freeze dried organism is added to a buffer solution containing 4-Methylumbelliferyl N-acetyl-β-D-glucosaminide in a concentration of 20 μM. The reaction-time is varied depending on the ambient temperature and according to a reaction-time/temperature data sheet previously developed for fungal NAHA activity at various temperatures, and is 30 minutes at 23° C. The resulting fluorescence formed during the reaction time is monitored in a calibrated fluorometer.

fungal NAHA activity = experiment: NAHA activity assay, fungal sources overall; format: biochemical, fungi; conditions: 10 μM
Description: as §1
(§2) Experiments were conducted where varying concentrations of AgNO3 was added to an analysis substrate. Furthermore, the experiments where performed on dried or freeze dried materials where both intact and fragmented cells are to be expected to be present.
(§3) Experiments analogous to those in example 1 were carried out, but instead of using non-specific inhibitors, the effect of different concentrations of DNJNAc on the NAHA activity in various biomass containing samples was investigated.
The experiments were performed with whole cell/organism cultures rather than purified enzyme, which is normally used in experiments on specific inhibition. It is plausible, though, that the surprising non-specific inhibition effect observed for Ag^+ and Hg^+ could be due to the inhibitors being delayed in physically contacting the NAHA enzyme in the fungi when compared to other types of biomass.

non-fungal NAHA activity = experiment: NAHA activity assay, non-fungal sources overall; format: biochemical; conditions: 10 μM
Description: as §1, §2, §3

Row | SMILES | inhibiting effect on NAHA activity from all sources [1] | inhibition of fungal NAHA activity (fungal NAHA activity) | inhibition of non-fungal NAHA activity (non-fungal NAHA activity)
1 | [Cu+2] [Cu^2+] | did not exhibit any or exhibited only very slight inhibiting effect |  | 
2 | [Hg+] [Hg^+] |  | less inhibition (but more than Ag^+) | high inhibition
